Reference: patent US20190185829A1, “Preparation of lipase with improved ester synthesis activity by using surfactants” (Jiangnan University, priority 2017, published 2019)

Experiments:
Assay type in all cases: biochemical
[1] = test system: Rhizopus chinensis lipase r27RCL; experiment: Ester synthesis activity of surfactant-treated lyophilized lipase r27RCL by GC analysis; conditions: surfactant 10 mM, protein 0.2 mg·mL^−1
Method: (§1) (2) Determination of Ester Synthesis Activity of the Lipase by GC Analysis
(§2) Substrate solution A: 48.5 mL of n-octanoic acid is dissolved in 250 mL of n-heptane in a volumetric flask.
(§3) Substrate solution B: 17.5 mL of absolute ethanol is dissolved in 250 mL of n-heptane in a volumetric flask.
(§4) Internal standard: 2-hexanol/n-heptane (35 g·L^−1).
(§5) Standard sample: 10 g of n-octanoate is dissolved in 1000 mL of n-heptane in a volumetric flask.
(§6) 1 mL substrate solution A and substrate solution B are added in a 5 mL Eppendorf tube respectively, then 20 mg lipase powder (or lyophilized powder) is added. The reaction is carried out at 40° C. and with shaking at 150 rpm for 30 min. Remove the lipase powder by centrifugation or membrane filtration. Then 0.1 mL of internal standard is added in 0.4 mL of filtrate or supernatant and mixed. Measure the content of n-octanoate in the mixture above by GC analysis.
(§7) The gas chromatograph (6820, Agilent Instruments) is equipped with a AC20 (PEG20000) capillary column and a FID detector. Nitrogen was used as the carrier gas. The oven temperature was programmed to start at 90° C. for 1 min and then be elevated to 200° C. for 5 min at 10° C.·min^−1. The injector and detector temperatures were set at 250° C.
(§8) Definition of enzyme activity: One unit of ester synthesis activity is defined as the amount of enzyme that esterifies 1 micromole of n-octanoate per min.
(§9) Specific activity: the activity of lipase per milligram of total protein in the lipase preparation.
(§10) Total recovery: the percentage of the activity after a treatment to that before the treatment
(§11) Add an equal volume of high-concentration surfactant solution into the enzyme solution. The final protein concentration was […] and the surfactant concentration was 10 mM. After mixed thoroughly, the mixture was lyophilized and kept in dry condition.
(§12) Commercial lipase r27RCL was purchased from Jiangsu Yiming Biological Technology Co., Ltd, which has high hydrolytic activity and low ester synthesis activity. Dissolve the r27RCL powder in water and centrifuge to obtain the supernatant containing the r27RCL lipase to adjust the ester synthesis activity (the final protein concentration was 0.2 mg·mL^−1 and the final concentration of surfactant was 10 mM, which is between 0.1×CMC^˜200×CMC of the different surfactants in Table 1).
(§13) Commercial lipase r27RCL was purchased from Jiangsu Yiming Biological Technology Co., Ltd. r27RCL is a lipase with high hydrolytic activity but low ester synthesis activity. Dissolve the r27RCL powder in water, centrifuge to obtain the supernatant and treat the supernatant with different concentrations of surfactant LPC14 (the final protein concentration was 0.2 mg·mL^−1).

[2] = test system: Rhizopus chinensis lipase r27RCL; experiment: Hydrolytic activity of surfactant-treated lipase r27RCL using pNPP as substrate; conditions: surfactant 10 mM, protein 0.2 mg·mL^−1
From the text: (§14) (1) Determination of Hydrolytic Activity of the Lipase Using p-Nitrophenyl Palmitate (pNPP) as Substrate
(§15) Hydrolysis of pNPP catalyzed by lipase generates p-nitrophenol and palmitic acid. p-nitrophenol appears yellow in the buffer at pH 8.0 with the maximum absorption peak at 410 nm. Determination of hydrolytic activity can be achieved by measuring the absorbance at 410 nm.
(§16) The substrate solution A: 50 mmol·L^−1 sodium phosphate buffer (pH 8.0) containing 1.16 g·L^−1 sodium deoxycholate and 0.56 g·L^−1 arabic gum. Substrate solution B: 0.015 g pNPP is dissolved in 5 mL isopropyl alcohol. Substrate solution A and substrate solution B are mixed then stored for use afterwards.
(§17) Termination solution: 40 g·L^−1 NaOH, 93.05 g·L^−1 EDTA sodium. Add 62 uL termination solution to the reaction mixture when stopping the reaction.
(§18) Add 0.1 mL appropriately diluted enzyme solution, which is substituted by inactivated enzyme solution as the control, to 2.4 mL substrate solution above, incubate the mixture at 40° C. for 2 min and measure the absorbance at 410 nm.
(§19) one hydrolytic activity unit is defined as the amount of enzyme that catalyzes the formation of 1 μmol of p-nitrophenol in 1 minute at 40° C.
(§20) enzyme activity (U·mL^−1)=(V×A410×10^6)/(ε×t×V′) Calculation equation: […]
(§21) Specific activity: the activity of lipase per milligram of total protein in the lipase preparation. […]
as §12, §13

[3] = target: T1, Rhizoupus oryzae lipase ROL (Rhizopus oryzae, UniProt P61872); experiment: Ester synthesis activity of surfactant-treated lyophilized lipase ROL by GC analysis; conditions: surfactant 10 mM, protein 0.2 mg·mL^−1
T1 construct: purchased Sigma-Aldrich Co., Ltd
T1 sequence (P61872 96-392): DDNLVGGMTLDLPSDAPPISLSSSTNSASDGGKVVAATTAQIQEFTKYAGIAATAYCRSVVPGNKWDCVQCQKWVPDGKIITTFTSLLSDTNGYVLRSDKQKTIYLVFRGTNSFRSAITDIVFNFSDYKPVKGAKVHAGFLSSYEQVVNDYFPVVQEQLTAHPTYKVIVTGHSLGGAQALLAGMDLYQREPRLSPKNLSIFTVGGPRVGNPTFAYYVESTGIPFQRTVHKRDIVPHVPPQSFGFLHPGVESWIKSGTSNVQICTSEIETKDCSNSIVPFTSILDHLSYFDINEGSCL
Method: as §1, §2, §3, §4, §5, §6, §7, §8, §9, §10, §11
(§22) Commercial lipase ROL was purchased from Sigma-Aldrich Co., Ltd. ROL is a non-immobilized lipase. Dissolve the ROL powder in water and centrifuge to obtain the supernatant containing the ROL lipase that would be regulated to improve its ester synthesis activity by adjusting the final protein concentration to 0.2 mg·mL^−1 and adding surfactants to the final concentration of 10 mM.
(§23) Commercial lipase ROL was purchased from Sigma-Aldrich Co., Ltd. and is a non-immobilized lipase. Dissolve the ROL powder in water, centrifuge to obtain the supernatant and treat the supernatant with different concentrations of surfactant LPC14 (the final protein concentration was 0.2 mg·mL^−1).

[4] = target: T1, Rhizoupus oryzae lipase ROL; experiment: Hydrolytic activity of surfactant-treated lipase ROL using pNPP as substrate; conditions: surfactant 10 mM, protein 0.2 mg·mL^−1
From the text: as §14, §15, §16, §17, §18, §19, §20, §21, §22, §23

[5] = target: T2, Pseudomonas cepacia lipase PCL (Burkholderia cepacia, UniProt P22088); experiment: Ester synthesis activity of surfactant-treated lyophilized lipase PCL by GC analysis; conditions: surfactant 10 mM, protein 0.2 mg·mL^−1
T2 construct: purchased Sigma-Aldrich Co., Ltd
T2 sequence (P22088 45-364): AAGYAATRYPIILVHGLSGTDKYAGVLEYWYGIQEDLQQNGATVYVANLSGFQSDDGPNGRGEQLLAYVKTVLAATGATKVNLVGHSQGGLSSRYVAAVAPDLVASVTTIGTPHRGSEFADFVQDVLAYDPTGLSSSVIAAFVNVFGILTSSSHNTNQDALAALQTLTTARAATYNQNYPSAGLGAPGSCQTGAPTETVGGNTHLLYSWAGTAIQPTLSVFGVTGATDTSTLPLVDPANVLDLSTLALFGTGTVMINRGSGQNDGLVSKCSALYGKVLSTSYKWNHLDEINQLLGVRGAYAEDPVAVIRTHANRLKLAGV
Method: as §1, §2, §3, §4, §5, §6, §7, §8, §9, §10, §11
as §22, with “PCL” for “ROL”, “the” for “its”
(§24) Commercial lipase PCL was purchased from Sigma-Aldrich Co., Ltd. and is a non-immobilized lipase. Dissolve the PCL powder in water, centrifuge to obtain the supernatant and treat the supernatant with different concentrations of surfactant DDM (the final protein concentration was 0.2 mg·mL^−1).

[6] = target: T2, Pseudomonas cepacia lipase PCL; experiment: Hydrolytic activity of surfactant-treated lipase PCL using pNPP as substrate; conditions: surfactant 10 mM, protein 0.2 mg·mL^−1
From the text: as §14, §15, §16, §17, §18, §19, §20, §21
as §22, with “PCL” for “ROL”, “the” for “its”
as §24

[7] = target: T3, Candida antarctica lipase CALB (Moesziomyces antarcticus, UniProt P41365); experiment: Ester synthesis activity of surfactant-treated lyophilized lipase CALB by GC analysis; conditions: surfactant 10 mM, protein 0.12 mg·mL^−1
T3 construct: purchased Sigma-Aldrich Co., Ltd
T3 sequence (P41365 26-342): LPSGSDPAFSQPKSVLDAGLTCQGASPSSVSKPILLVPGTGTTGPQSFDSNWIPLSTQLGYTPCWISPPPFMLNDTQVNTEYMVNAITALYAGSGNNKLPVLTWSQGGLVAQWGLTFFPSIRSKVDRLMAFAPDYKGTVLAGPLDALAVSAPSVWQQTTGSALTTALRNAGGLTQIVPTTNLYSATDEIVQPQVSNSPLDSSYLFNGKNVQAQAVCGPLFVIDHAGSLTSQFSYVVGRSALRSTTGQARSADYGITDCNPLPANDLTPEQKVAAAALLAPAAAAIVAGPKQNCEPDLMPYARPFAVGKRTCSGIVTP
Method: as §1, §2, §3, §4, §5, §6, §7, §8, §9, §10, §11
as §22, with “CALB” for “ROL”, “the” for “its”, “0.12” for “0.2”
(§25) Commercial lipase CALB was purchased from Sigma-Aldrich Co., Ltd. and is a non-immobilized lipase. Dissolve the CALB powder in water, centrifuge to obtain the supernatant and treat the supernatant with different concentrations of surfactant DDM (the final protein concentration was 0.12 mg·mL^−1).

[8] = target: T3, Candida antarctica lipase CALB; experiment: Hydrolytic activity of surfactant-treated lipase CALB using pNPP as substrate; conditions: surfactant 10 mM, protein 0.12 mg·mL^−1
From the text: as §14, §15, §16, §17, §18, §19, §20, §21
as §22, with “CALB” for “ROL”, “the” for “its”, “0.12” for “0.2”
as §25

Molecule: C[C@H](CCC(=O)NCCC[N+](C)(C)CCCS(=O)(=O)[O-])[C@H]1CC[C@H]2[C@@H]3[C@H](O)C[C@@H]4C[C@H](O)CC[C@]4(C)[C@H]3C[C@H](O)[C@]12C [CHAPS, 3-[(3-Cholamidopropyl)dimethylammonio]-1-propanesulfonate]
- Ester synthesis activity, Specific activity [1]: 13.0 U · mg^−1
- Ester synthesis activity, Total recovery [1]: 105%
- Hydrolytic activity, Specific activity [2]: 132.6 U · mg^−1
- Hydrolytic activity, Total recovery [2]: 109%
- Ester synthesis activity, Specific activity [3]: 2.6 U · mg^−1
- Hydrolytic activity, Specific activity [4]: 23.6 U · mg^−1
- Hydrolytic activity, Total recovery [4]: 81%
- Ester synthesis activity, Specific activity [5]: 4.7 U · mg^−1
- Ester synthesis activity, Total recovery [5]: 130%
- Hydrolytic activity, Specific activity [6]: 248.0 U · mg^−1
- Hydrolytic activity, Total recovery [6]: 101%
- Ester synthesis activity, Specific activity [7]: 5.9 U · mg^−1
- Ester synthesis activity, Total recovery [7]: 44%
- Hydrolytic activity, Specific activity [8]: 1.6 U · mg^−1
- Hydrolytic activity, Total recovery [8]: 92%

Molecule: CCCCCCCCCCCCCCCC[N+](C)(C)C.[Br-] [CTAB, hexadecyl trimethyl ammonium bromide]
- Ester synthesis activity, Specific activity [1]: 0 U · mg^−1
- Ester synthesis activity, Total recovery [1]: 0%
- Hydrolytic activity, Specific activity [2]: 0 U · mg^−1
- Hydrolytic activity, Total recovery [2]: 0%
- Ester synthesis activity, Specific activity [3]: 0 U · mg^−1
- Ester synthesis activity, Total recovery [3]: 0%
- Hydrolytic activity, Specific activity [4]: 0 U · mg^−1
- Hydrolytic activity, Total recovery [4]: 0%
- Ester synthesis activity, Specific activity [5]: 0 U · mg^−1
- Ester synthesis activity, Total recovery [5]: 0%
- Hydrolytic activity, Specific activity [6]: 75.5 U · mg^−1
- Hydrolytic activity, Total recovery [6]: 29%
- Ester synthesis activity, Specific activity [7]: 36.6 U · mg^−1
- Ester synthesis activity, Total recovery [7]: 300%
- Hydrolytic activity, Specific activity [8]: 0 U · mg^−1
- Hydrolytic activity, Total recovery [8]: 0%

Molecule: CCCCCCCCCCCCOCCOCCOCCOCCOCCOCCOCCOCCO [C12E8, octaethylene glycol monododecyl ether]
- Ester synthesis activity, Specific activity [1]: 22.2 U · mg^−1
- Hydrolytic activity, Specific activity [2]: 117.1 U · mg^−1
- Hydrolytic activity, Total recovery [2]: 101%
- Ester synthesis activity, Specific activity [3]: 2.6 U · mg^−1
- Hydrolytic activity, Specific activity [4]: 23.7 U · mg^−1
- Hydrolytic activity, Total recovery [4]: 82%
- Ester synthesis activity, Specific activity [5]: 4.6 U · mg^−1
- Ester synthesis activity, Total recovery [5]: 130%
- Hydrolytic activity, Specific activity [6]: 281.1 U · mg^−1
- Hydrolytic activity, Total recovery [6]: 98%
- Ester synthesis activity, Specific activity [7]: 62.8 U · mg^−1
- Hydrolytic activity, Specific activity [8]: 0 U · mg^−1
- Hydrolytic activity, Total recovery [8]: 0%

Molecule: polyethylene glycol octylphenyl Ether [Triton X-100]
- Ester synthesis activity, Specific activity [1]: 12.9 U · mg^−1
- Ester synthesis activity, Total recovery [1]: 192%
- Hydrolytic activity, Specific activity [2]: 116.6 U · mg^−1
- Hydrolytic activity, Total recovery [2]: 93%
- Ester synthesis activity, Specific activity [3]: 1.7 U · mg^−1
- Ester synthesis activity, Total recovery [3]: 200%
- Hydrolytic activity, Specific activity [4]: 34.9 U · mg^−1
- Hydrolytic activity, Total recovery [4]: 99%
- Ester synthesis activity, Specific activity [5]: 6.3 U · mg^−1
- Ester synthesis activity, Total recovery [5]: 174%
- Hydrolytic activity, Specific activity [6]: 364.5 U · mg^−1
- Hydrolytic activity, Total recovery [6]: 131%
- Ester synthesis activity, Specific activity [7]: 77.4 U · mg^−1
- Hydrolytic activity, Specific activity [8]: 0 U · mg^−1
- Hydrolytic activity, Total recovery [8]: 0%

Molecule: CCCCCC(=O)OC[C@H](COP(=O)([O-])OCC[N+](C)(C)C)OC(=O)CCCCC [DiC6PC, 1,2-dihexanoyl lecithin]
- Ester synthesis activity, Specific activity [1]: 15.9 U · mg^−1
- Ester synthesis activity, Total recovery [1]: 256%
- Hydrolytic activity, Specific activity [2]: 104.2 U · mg^−1
- Hydrolytic activity, Total recovery [2]: 87%
- Ester synthesis activity, Specific activity [3]: 3.11 U · mg^−1
- Hydrolytic activity, Specific activity [4]: 15.2 U · mg^−1
- Hydrolytic activity, Total recovery [4]: 76%
- Ester synthesis activity, Specific activity [5]: 7.1 U · mg^−1
- Ester synthesis activity, Total recovery [5]: 260%
- Hydrolytic activity, Specific activity [6]: 308.2 U · mg^−1
- Hydrolytic activity, Total recovery [6]: 140%
- Ester synthesis activity, Specific activity [7]: 31.9 U · mg^−1
- Hydrolytic activity, Specific activity [8]: 0.98 U · mg^−1
- Hydrolytic activity, Total recovery [8]: 85%
